Data set [1] in a line: Cytotoxicity against human HBI10A cells after 20 hrs by MTS assay. The format is cell-based. Background: Tetrazolium dyes change colour on reduction, which living cells bring about.
Another data set deals with Hepatitis C virus. In words: Antiviral activity against HCV infected in human HBI10A cells assessed as inhibition of viral-NS3 expression by ELISA. It counts as functional, organism-based, Hepacivirus hominis. Background: An ELISA detects its analyte on a solid surface through an enzyme-linked reagent.
Data set [2] is described as follows: Selectivity index, ratio of CC50 for human HBI10A cells to IC50 for HCV. It counts as functional.

What is called CC50 is the concentration that lowers cell viability or growth by half. Read a low CC50 as harm at low concentration. Broadly, the IC50 is the concentration that gives 50% inhibition.

Bounds are passed on as bounds.

The molecule `CC(C)(C)OC(=O)N1[C@H](CO)C[C@@H](O)[C@@H]1n1cc(F)c(=O)[nH]c1=O` yielded a 50% cytotoxic concentration (CC50) at 20 h in data set [1] of 623 µM. Besides, the IC50 in the data set on Hepatitis C virus was 0.00035 µM.

The molecule `CCOC(=O)N1[C@H](CO)C[C@@H](O)[C@@H]1n1cc(F)c(=O)[nH]c1=O` came in with a CC50 at 20 h in data set [1] greater than 1000 µM. For the same molecule, the IC50 with Hepatitis C virus amounted to 4.8 µM. Also, in data set [2], the “Ratio CC50/IC50” value was “>=208”.

For the molecule `CCOC(=O)N1[C@H](CO)C[C@@H](O)[C@H]1n1cc(F)c(=O)[nH]c1=O`, the 50% cytotoxic concentration (CC50) at 20 h in data set [1] was determined as 200 µM. Moreover, the IC50 in the data set on Hepatitis C virus was greater than 1000 µM.

In data set [1], `CC(C)(C)OC(=O)N1[C@H](CO)C[C@@H](O)[C@@H]1n1ccc(=O)[nH]c1=O` returned a cytotoxic concentration (CC50) at 20 h greater than 1000 µM. Besides, the IC50 with Hepatitis C virus turned out to be 40.6 µM.

In the case of `Cc1cn([C@H]2[C@H](O)C[C@@H](CO)N2C(=O)OC(C)(C)C)c(=O)[nH]c1=O`, in data set [1], the CC50 at 20 h was greater than 1000 µM. Also, the IC50 with Hepatitis C virus amounted to 0.018 µM.

In data set [1], `CC(C)(C)OC(=O)N1[C@H](CO)C[C@@H](O)[C@@H]1n1ccc(N)nc1=O` yielded a CC50 at 20 h greater than 1000 µM. Also, the IC50 in the data set with Hepatitis C virus came out at 96 µM.

(Values after ChEMBL document CHEMBL1136913, “Stereoselective synthesis and biological evaluations of novel 3'-deoxy-4'-azaribonucleosides as inhibitors of hepatitis C virus RNA replication” (J Med Chem, 2009).)
